# Source: patent publication US20150284347A1, “NEW BENZENE SULFONAMIDE THIAZOLE COMPOUNDS” (INSERM (INSTITUT NATIONAL DE LA SANTÉ ET DE LA RECHERCHE …, priority 2012, published 2015)
# Columns and labels:
# [1] = test system: melanoma cells resistant to dabrafenib; assay: Trypan blue cell viability, melanoma cells resistant to dabrafenib; type: cell-based, human; settings: patient melanoma cells resistant to dabrafenib, FIG. 5
# Method: The measure of cell viability was performed in the same way as for FIG. 1. Results are expressed as percentage of cells alive relatively to the number of living cells in the presence of DMSO, which is a negative control
# Cells were seeded in 6-well plates (60000 cells/well), depleted and incubated with compounds for the times indicated. Then cells were detached in the presence of 2000 of HyQTase (Thermo) and 2 ml of RPMI 1640 Glutamax (Gibco) was added to the cell solution. 100 of this solution was stained for 1 minute with 100 of 0.4% trypan blue before counting with a Malassez chamber.
# Melanoma cells resistant to dabrafenib wee prepared from patients treated and presented a resistance to dabrafenib. dabrafenib, [HA15], [SR47] and [SR50] were tested on these resistant cells, in order to determine their activity on cell viability of resistant melanoma cells, as illustrated in FIG. 5.
# [2] = test system: A375 melanoma cells; assay: A375 melanoma xenograft tumor development in nude mice; type: in vivo; settings: 0.7 mg/mouse/day over 24 days, athymic nude mice
# Method: To assess a potential antineoplastic effect of (HA15) and (SR50) in vivo, A375 melanoma cells (2.5×10^6) were injected subcutaneously in 6-week-old female athymic nude mice and treated 5 days later by injection of vehicle (labrafil) or different compounds such as PLX4032, (HA15) and (SR50) (0.7 mg/mouse/day) over a period of 24 days. Inhibitory effect is expressed as the tumor volume (mm^3) on day 8, 11, 15, 18, 22 and 24.
# Athymic BALB/C nu/nu mice (Harlan) were used. The animals were 6 weeks old and weighed between 20 and 25 g. The mice were housed in the animal's C3M in a 12 h/12 h cycle. The animals received water and food ad libitum. Mice were first acclimated for one week and then injected with A375 cells (2.5 million cells in 200 μl of PBS) subcutaneously into the right and left sides. Treatment was started eight days after injection of cancer cells (when tumors were visible). The various compounds were diluted in a mixture of Labrafil (90%) (Gattefosse), Tween 80 (1%) and N,N-Dimethylacetamide (9%). Five groups of six mice treated every day intraperitoneally with 0.7 mg/day of PLX4032, SR44 (HA15), SR47 (HA32), SR50 (JG25) or with the mixture of Labrafil in control were defined. Three times a week the tumor size was measured using a caliper. […]
# [3] = test system: normal human melanocytes; assay: Trypan blue cell viability, normal melanocytes; type: cell-based; settings: 10 μM, FIG. 2
# Method: Primary cell cultures of human normal melanocytes were prepared from human foreskin. In order to determine the effect of compound HA15 on cell viability of melanocytes and fibroblasts, 10 μM of ciglitazone or 10 μM of HA15 were added to the cell samples. The measure of cell viability was performed in the same way as for FIG. 1. Results are expressed as the percentage of living cells relatively to the number of living cells in the presence of DMSO, as for FIG. 1. Normal human melanocytes (NHM) prepared from foreskins of newborns were grown under 5% CO2 at 37° C. in MCDB 153 (Sigma) supplemented with 2% FCS, bovine pituitary extract (10 μg/ml), PMA (8 nM), bFGF (ing/nil), insulin (5 μg/ml), hydrocortisone (0.5 μg/ml), forskolin (10 μM), gentamicin (20 μg/ml), penicillin/streptomycin/amphotericin B (100 U/ml) (Invitrogen). Cells were seeded in 6-well plates (60000 cells/well), depleted and incubated with compounds for the times indicated. Then cells were detached in the presence of 2000 of […] (Thermo) and 2 ml of RPMI 1640 Glutamax (Gibco) was added to the cell solution. 100 of this solution was stained for 1 minute with 100 of 0.4% trypan blue before counting with a Malassez chamber. The effect of compound HA15 on cell viability of melanocytes and fibroblasts was studied, as illustrated by FIG. 2. Primary cell cultures of human normal melanocytes were prepared from human foreskin. […]
# [4] = test system: normal human fibroblasts; assay: Trypan blue cell viability, normal fibroblasts; type: cell-based; settings: 10 μM, FIG. 2
# Method: Primary cell cultures of human normal melanocytes were prepared from human foreskin. In order to determine the effect of compound HA15 on cell viability of melanocytes and fibroblasts, 10 μM of ciglitazone or 10 μM of HA15 were added to the cell samples. The measure of cell viability was performed in the same way as for FIG. 1. Results are expressed as the percentage of living cells relatively to the number of living cells in the presence of DMSO, as for FIG. 1. Normal human fibroblasts prepared from foreskins of newborns were grown under 5% CO2 at 37° C. in DMEM medium supplemented with 10% FCS and penicillin/streptomycin (100 U/ml/[…]). Cells were seeded in 6-well plates (60000 cells/well), depleted and incubated with compounds for the times indicated. Then cells were detached in the presence of 2000 of […] (Thermo) and 2 ml of RPMI 1640 Glutamax (Gibco) was added to the cell solution. 100 of this solution was stained for 1 minute with 100 of 0.4% trypan blue before counting with a Malassez chamber. The effect of compound HA15 on cell viability of melanocytes and fibroblasts was studied, as illustrated by FIG. 2. Primary cell cultures of human normal melanocytes were prepared from human foreskin. In order to determine the effect of compound HA15 on cell viability of melanocytes and fibroblasts, 10 μM of ciglitazone or 10 μM of HA15 were added to the cell samples. […]
# [5] = test system: phosphorylation; assay: Western blot of MAP vemurafenib activation on A375 melanoma cells; type: cell-based; settings: FIG. 6
# Method: FIG. 6: Western Blots showing the effect of compounds of the invention and dabrafenib on MAP Vemurafenib activation on A375 melanoma cells.
# Proteins were extracted in Fisher buffer containing TRIS-HCl pH 7.5 50 mM, NaCl 15 mM, Triton X-100 1% and proteases and phosphatases inhibitors. Briefly, cell lysates (30 μg) were separated by SDS-PAGE, transferred onto a PVDF membrane (Millipore, Molsheim, France) and then exposed to the appropriate antibodies. Proteins were visualized with the ECL system from Amersham (Arlington, Heights, Ill., USA). The western blots shown are representative of at least 3 independent experiments.
# Indeed, dabrafenib as PLX4032 inhibits activation of B-Raf on B-Raf V600E mutated melanoma. The inhibition of B-Raf leads to inhibition of MAP Vemurafenib cascade and could be visualized through inhibition of MAP vemurafenib phosphorylation.
smiles,measurement,setting,value
"CC(=O)Nc1nc(-c2ccc(NS(=O)(=O)c3cccc4c(N(C)C)cccc34)cc2)cs1 [HA32, N-(4-(4-(5-(dimethylamino)naphthalene-1-sulfonamido)phenyl)thiazol-2-yl)acetamide]",cell viability of resistant melanoma cells,[1],inhibit cell viability of resistant melanoma cells
"CC(=O)Nc1nc(-c2cccc(NS(=O)(=O)c3ccc(C)cc3)c2)cs1 [SR50, N-(4-(3-(4-methylphenylsulfonamido)phenyl)thiazol-2-yl)acetamide]",cell viability of resistant melanoma cells,[1],inhibit cell viability of resistant melanoma cells
same,ability of cells to develop visible tumors,[2],markedly attenuated
"CC1(COc2ccc(CC3SC(=O)NC3=O)cc2)CCCCC1 (centres unmarked) [ciglitazone, reference compound]",cell viability of normal melanocytes,[3],not affected
same,cell viability of normal fibroblasts,[4],not affected
CC(C)(C)c1nc(-c2cccc(NS(=O)(=O)c3c(F)cccc3F)c2F)c(-c2ccnc(N)n2)s1 [dabrafenib],cell viability of resistant melanoma cells,[1],contrary to dabrafenib inhibit cell viability of resistant melanoma cells
same,MAP vemurafenib expression,[5],did not modulate
same,MAP vemurafenib phosphorylation,[5]; versus DMSO,complete inhibition
